Values after ≈ are worked out from the molar mass of the structure shown.
Tests used:
Histamine H3 receptor [1] = target: T1, Histamine H3 receptor (Homo sapiens, UniProt Q9Y5N1); experiment: Antagonist activity at human histamine H3 receptor expressed in HEK293 cells assessed as inhibition of calcium mobilization by FLIPR assay; type: functional, cell-based
[2] = target: Histamine H1 receptor (Homo sapiens) (UniProt P35367); experiment: Antagonist activity at human histamine H1 receptor assessed as inhibition of calcium mobilization at 10 uM by FLIPR assay relative to control; type: functional
Histamine H1 receptor (Homo sapiens), sequence (P35367 whole entry): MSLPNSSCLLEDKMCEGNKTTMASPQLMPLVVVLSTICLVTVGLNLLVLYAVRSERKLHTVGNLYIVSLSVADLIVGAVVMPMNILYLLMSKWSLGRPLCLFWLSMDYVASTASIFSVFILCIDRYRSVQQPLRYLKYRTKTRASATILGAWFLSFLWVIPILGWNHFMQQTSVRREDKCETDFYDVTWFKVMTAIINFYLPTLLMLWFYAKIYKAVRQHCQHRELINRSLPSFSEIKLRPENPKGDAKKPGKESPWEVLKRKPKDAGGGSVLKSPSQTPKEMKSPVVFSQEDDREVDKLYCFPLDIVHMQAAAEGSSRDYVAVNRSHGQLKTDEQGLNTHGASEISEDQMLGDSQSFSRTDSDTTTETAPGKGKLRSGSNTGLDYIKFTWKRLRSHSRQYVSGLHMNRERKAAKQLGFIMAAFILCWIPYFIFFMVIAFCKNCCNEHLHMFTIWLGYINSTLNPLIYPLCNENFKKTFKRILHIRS

[3] = target: Histamine H2 receptor (Homo sapiens) (UniProt P25021); experiment: Antagonist activity at human histamine H2 receptor assessed as inhibition of calcium mobilization at 10 uM by FLIPR assay relative to control; type: functional
Histamine H2 receptor (Homo sapiens), sequence (P25021 whole entry): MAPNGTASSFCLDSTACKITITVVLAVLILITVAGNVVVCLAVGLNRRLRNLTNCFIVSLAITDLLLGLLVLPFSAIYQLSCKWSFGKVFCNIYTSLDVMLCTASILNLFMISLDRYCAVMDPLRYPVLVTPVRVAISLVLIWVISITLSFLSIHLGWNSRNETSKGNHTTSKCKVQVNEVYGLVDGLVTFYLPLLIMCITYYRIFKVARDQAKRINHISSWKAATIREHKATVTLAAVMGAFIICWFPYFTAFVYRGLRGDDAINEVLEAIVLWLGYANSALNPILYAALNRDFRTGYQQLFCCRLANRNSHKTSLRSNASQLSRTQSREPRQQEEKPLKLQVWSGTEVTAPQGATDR

Histamine H3 receptor [4] = target: T1, Histamine H3 receptor; experiment: Antagonist activity at human histamine H3 receptor in human T-REx-293 cells assessed as inhibition of basal GTPgammaS binding at 10 uM after 90 mins by scintillation counting analysis relative to control; type: functional, cell-based; details: HEK293
[5] = target: Melanin-concentrating hormone receptor 1 (Homo sapiens) (UniProt Q99705); experiment: Antagonist activity at human MCH1R assessed as inhibition of calcium mobilization at 10 uM by FLIPR assay relative to control; type: functional
Melanin-concentrating hormone receptor 1 (Homo sapiens), sequence (Q99705 whole entry): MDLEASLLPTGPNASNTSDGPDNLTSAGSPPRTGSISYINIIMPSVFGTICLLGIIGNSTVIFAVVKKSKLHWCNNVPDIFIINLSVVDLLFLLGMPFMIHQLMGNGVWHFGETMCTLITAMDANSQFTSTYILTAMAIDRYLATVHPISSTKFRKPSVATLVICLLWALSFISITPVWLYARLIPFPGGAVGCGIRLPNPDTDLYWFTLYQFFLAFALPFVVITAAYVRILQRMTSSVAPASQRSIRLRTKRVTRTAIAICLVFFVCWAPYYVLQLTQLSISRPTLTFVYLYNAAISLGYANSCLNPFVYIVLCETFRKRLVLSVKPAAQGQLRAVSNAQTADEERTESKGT

hERG (KCNH2) = hERG (KCNH2) (Homo sapiens, UniProt Q12809); experiment: Inhibition of human ERG at 10 uM relative to control
hERG (KCNH2), sequence (Q12809 whole entry): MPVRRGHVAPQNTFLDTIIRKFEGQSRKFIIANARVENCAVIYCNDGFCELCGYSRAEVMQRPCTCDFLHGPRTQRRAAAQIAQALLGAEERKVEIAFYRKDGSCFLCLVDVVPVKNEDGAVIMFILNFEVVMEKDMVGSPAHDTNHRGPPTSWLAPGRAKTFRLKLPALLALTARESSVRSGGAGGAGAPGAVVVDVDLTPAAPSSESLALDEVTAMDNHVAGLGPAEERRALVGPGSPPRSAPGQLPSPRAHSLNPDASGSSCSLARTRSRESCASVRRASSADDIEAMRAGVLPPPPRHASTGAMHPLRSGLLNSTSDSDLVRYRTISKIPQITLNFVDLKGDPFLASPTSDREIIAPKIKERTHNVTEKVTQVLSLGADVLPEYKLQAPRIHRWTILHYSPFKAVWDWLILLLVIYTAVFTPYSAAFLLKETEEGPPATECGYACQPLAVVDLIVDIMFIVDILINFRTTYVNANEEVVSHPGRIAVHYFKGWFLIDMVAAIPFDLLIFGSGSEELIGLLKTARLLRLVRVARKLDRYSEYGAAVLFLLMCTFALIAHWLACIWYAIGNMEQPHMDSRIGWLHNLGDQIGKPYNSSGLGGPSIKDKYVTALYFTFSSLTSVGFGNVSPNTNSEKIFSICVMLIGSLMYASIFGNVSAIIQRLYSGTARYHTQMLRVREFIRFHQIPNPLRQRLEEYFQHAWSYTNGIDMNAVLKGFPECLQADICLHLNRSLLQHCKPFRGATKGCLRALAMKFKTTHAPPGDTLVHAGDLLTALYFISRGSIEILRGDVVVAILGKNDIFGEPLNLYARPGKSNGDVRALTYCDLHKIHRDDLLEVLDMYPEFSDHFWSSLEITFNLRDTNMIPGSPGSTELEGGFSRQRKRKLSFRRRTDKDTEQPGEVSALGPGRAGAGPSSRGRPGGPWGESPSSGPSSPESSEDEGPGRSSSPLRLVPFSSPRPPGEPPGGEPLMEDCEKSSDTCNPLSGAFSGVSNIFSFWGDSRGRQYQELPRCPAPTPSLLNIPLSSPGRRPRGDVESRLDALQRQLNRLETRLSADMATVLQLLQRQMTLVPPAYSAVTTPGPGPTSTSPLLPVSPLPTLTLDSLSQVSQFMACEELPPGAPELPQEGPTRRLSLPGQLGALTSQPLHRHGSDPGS

[6] = Solubility of the compound; type: physicochemical
Histamine receptor H3 = Histamine receptor H3 (Macaca mulatta, UniProt Q865E1); experiment: Displacement of [3H]N-alpha-methylhistamine from cloned rhesus monkey histamine H3 receptor transfected in CHO cells after 1 hr by scintillation counting analysis; type: cell-based
Histamine receptor H3, sequence (Q865E1 whole entry): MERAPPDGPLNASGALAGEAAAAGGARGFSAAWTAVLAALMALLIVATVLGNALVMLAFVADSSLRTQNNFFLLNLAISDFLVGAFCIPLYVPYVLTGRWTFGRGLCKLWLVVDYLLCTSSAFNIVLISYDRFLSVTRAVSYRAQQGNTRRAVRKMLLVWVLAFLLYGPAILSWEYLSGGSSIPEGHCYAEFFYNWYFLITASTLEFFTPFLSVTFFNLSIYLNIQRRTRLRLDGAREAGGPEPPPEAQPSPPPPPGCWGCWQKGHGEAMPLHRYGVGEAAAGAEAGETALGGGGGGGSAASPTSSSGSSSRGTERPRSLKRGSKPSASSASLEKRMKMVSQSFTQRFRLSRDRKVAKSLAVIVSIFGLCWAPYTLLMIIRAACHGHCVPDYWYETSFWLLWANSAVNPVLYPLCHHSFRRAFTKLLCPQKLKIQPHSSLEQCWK

[7] = Drug metabolism in rat liver microsomes; type: ADME, Microsome; details: read-out: Drug metabolism
Histamine H3 receptor [8] = target: T1, Histamine H3 receptor; experiment: Displacement of [3H]N-alpha-methylhistamine from cloned human histamine H3 receptor transfected in CHO cells after 1 hr by scintillation counting analysis; type: cell-based
Histamine H3 receptor [9] = target: Histamine H3 receptor (Rattus norvegicus, UniProt Q9QYN8); experiment: Displacement of [3H]N-alpha-methylhistamine from cloned rat histamine H3 receptor transfected in CHO cells after 1 hr by scintillation counting analysis; type: cell-based
Histamine H3 receptor (Rattus norvegicus, UniProt Q9QYN8), sequence (Q9QYN8 whole entry): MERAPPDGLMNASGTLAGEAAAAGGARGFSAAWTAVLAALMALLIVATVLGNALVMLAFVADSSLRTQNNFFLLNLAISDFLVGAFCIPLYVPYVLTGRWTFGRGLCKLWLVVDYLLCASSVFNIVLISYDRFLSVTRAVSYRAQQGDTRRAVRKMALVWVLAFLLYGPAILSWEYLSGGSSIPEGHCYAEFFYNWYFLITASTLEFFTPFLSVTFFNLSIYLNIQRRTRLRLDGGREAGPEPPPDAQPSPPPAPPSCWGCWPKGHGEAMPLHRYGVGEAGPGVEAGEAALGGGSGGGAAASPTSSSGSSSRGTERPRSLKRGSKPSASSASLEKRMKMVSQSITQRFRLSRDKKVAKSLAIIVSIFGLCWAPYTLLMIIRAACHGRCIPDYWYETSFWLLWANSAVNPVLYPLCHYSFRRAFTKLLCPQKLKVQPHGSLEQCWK

[10] = Drug metabolism in mouse liver microsomes; type: ADME, Microsome; details: read-out: Drug metabolism
[11] = Drug metabolism in human liver microsomes; type: ADME, Microsome; details: read-out: Drug metabolism

T1 sequence (Q9Y5N1 whole entry): as the sequence (Q865E1 whole entry) above, with N148D, G240A, A282V, T289A, A290T, A300V, Q442H counted along it

## Cc1cc(NC(=O)NC2CCCCC2)ccc1N1CCC(N2CCCC2C)C1 (configuration not stated)
Histamine H3 receptor [1]
  IC50: 0.2 nM
[2]
  inhibition: < 40%
[3]
  inhibition: < 40%
Histamine H3 receptor [4]
  inhibition: 130%
[5]
  inhibition: < 40%

## Cc1cc(N2CCC(N3CCCC3C)C2)ccc1NC(=O)Nc1cc(Cl)cc(Cl)c1 (configuration not stated)
hERG (KCNH2)
  inhibition at 10 µM: 74%
Histamine H3 receptor [1]
  IC50: 0.9 nM
[2]
  inhibition: < 40%
[6]
  solubility: 10.5 µg/mL (≈ 23.5 µM)
[3]
  inhibition: < 40%
Histamine H3 receptor [4]
  inhibition: 126%
[5]
  inhibition: < 40%

## CC1CCCN1C1CCN(c2ccc(NC(=O)NC3CCCCC3)cc2)C1 (configuration not stated)
Histamine H3 receptor [1]
  IC50: 0.1 nM
[2]
  inhibition: < 40%
[3]
  inhibition: < 40%
Histamine H3 receptor [4]
  inhibition: 122%
[5]
  inhibition: < 40%

## Cc1cccc(NC(=O)Nc2ccc(OCCN(C)C)cc2)c1C
Histamine H3 receptor [1]
  IC50: 73.1 nM
Histamine H3 receptor [4]
  inhibition: 94%

## O=C(Nc1ccc(OCCCN2CCCCC2)cc1)Nc1cc(Cl)cc(Cl)c1
Histamine H3 receptor [1]
  IC50: 0.5 nM
[2]
  inhibition: < 40%
[3]
  inhibition: < 40%
Histamine H3 receptor [4]
  inhibition: 125%
Histamine receptor H3
  Ki: 3.4 nM
[5]
  inhibition: < 40%

## CCOc1ccc(C)cc1NC(=O)Nc1ccc(OCCN(CC)CC)cc1
Histamine H3 receptor [1]
  IC50: 9.1 nM
Histamine H3 receptor [4]
  inhibition: 107%

## CC1CCCN1C1CCN(c2ccc(NC(=O)N3CCN(c4ccccc4)CC3)cc2)C1 (configuration not stated)
Histamine H3 receptor [1]
  IC50: 0.4 nM
[2]
  inhibition: < 40%
[3]
  inhibition: < 40%
Histamine H3 receptor [4]
  inhibition: 122%
[5]
  inhibition: < 40%

## Cc1c(Cl)cc(NC(=O)Nc2ccc(OCCCN3CCCCC3)cc2)cc1Cl
Histamine H3 receptor [1]
  IC50: 0.2 nM
[7]
  metabolised: 36%
[6]
  solubility: 6 µg/mL (≈ 13.7 µM)
Histamine H3 receptor [8]
  Ki: 112 nM
Histamine H3 receptor [9]
  Ki: 135 nM
Histamine H3 receptor [4]
  inhibition: 133%
Histamine receptor H3
  Ki: 18.2 nM
[10]
  metabolised: 34%
[11]
  metabolised: 10%

## O=C(Nc1ccc(Cl)cc1)Nc1ccc(OCCN2CCCCC2)cc1
Histamine H3 receptor [1]
  IC50: 27.5 nM
Histamine H3 receptor [4]
  inhibition: 105%

## O=C(Nc1ccc(OCCN2CCCCC2)cc1)Nc1ccc(F)cc1F
Histamine H3 receptor [1]
  IC50: 40.5 nM
Histamine H3 receptor [4]
  inhibition: 115%

## Cc1cccc(NC(=O)Nc2ccc(OCCCN(C)C)cc2)c1C
Histamine H3 receptor [1]
  IC50: 14.7 nM
Histamine H3 receptor [4]
  inhibition: 125%

## CC(=O)N(C)C1CCN(C(=O)Nc2ccc(N3CCC(N4CCCC4C)C3)c(C)c2)C1 (configuration not stated)
Histamine H3 receptor [1]
  IC50: 1.1 nM
[2]
  inhibition: < 40%
[3]
  inhibition: < 40%
Histamine H3 receptor [4]
  inhibition: 118%
[5]
  inhibition: < 40%

## CCN(CC)CCCOc1ccc(NC(=O)Nc2ccc(F)cc2F)cc1
Histamine H3 receptor [1]
  IC50: 7.9 nM
Histamine H3 receptor [4]
  inhibition: 124%

## Cc1cc(NC(=O)NCc2cccs2)ccc1N1CCC(N2CCCC2C)C1 (configuration not stated)
Histamine H3 receptor [1]
  IC50: 0.2 nM
[2]
  inhibition: < 40%
[3]
  inhibition: < 40%
Histamine H3 receptor [4]
  inhibition: 125%
[5]
  inhibition: < 40%

## O=C(Nc1ccc(Cl)cc1)Nc1ccc(OCCCN2CCCCC2)cc1
Histamine H3 receptor [1]
  IC50: 0.7 nM
Histamine H3 receptor [4]
  inhibition: 119%

## Cc1cc(NC(=O)N2CCN(C)CC2)ccc1N1CCC(N2CCCC2C)C1 (configuration not stated)
Histamine H3 receptor [1]
  IC50: 1.1 nM
[2]
  inhibition: < 40%
[3]
  inhibition: < 40%
Histamine H3 receptor [4]
  inhibition: 118%
[5]
  inhibition: < 40%

## Cc1cc(N2CCC(N3CCCC3C)C2)ccc1NC(=O)NC1CCCCC1 (configuration not stated)
Histamine H3 receptor [1]
  IC50: 0.2 nM
[2]
  inhibition: < 40%
[3]
  inhibition: < 40%
Histamine H3 receptor [4]
  inhibition: 110%
[5]
  inhibition: < 40%

## CCN(CC)CCOc1ccc(NC(=O)Nc2c(Cl)cccc2Cl)cc1
Histamine H3 receptor [1]
  IC50: 1 nM
Histamine H3 receptor [4]
  inhibition: 116%

## CCN(CC)CCOc1ccc(NC(=O)Nc2ccc(Cl)cc2Cl)cc1
Histamine H3 receptor [1]
  IC50: 39.1 nM
Histamine H3 receptor [4]
  inhibition: 118%

## CN(C)CCc1ccc(NC(=O)Nc2ccc(CCN(C)C)cc2)cc1
Histamine H3 receptor [1]
  IC50: 6.5 nM
Histamine H3 receptor [4]
  inhibition: 94.7%

## CC(=O)N1CCN(C(=O)Nc2ccc(N3CCC(N4CCCC4C)C3)c(C)c2)CC1 (configuration not stated)
Histamine H3 receptor [1]
  IC50: 2.3 nM
[2]
  inhibition: < 40%
[3]
  inhibition: < 40%
Histamine H3 receptor [4]
  inhibition: 115%
[5]
  inhibition: < 40%

## O=C(Nc1ccc(OCCCN2CCCCC2)cc1)Nc1ccc(F)cc1F
Histamine H3 receptor [1]
  IC50: 0.5 nM
Histamine H3 receptor [8]
  Ki: 52 nM
Histamine H3 receptor [9]
  Ki: 33 nM
Histamine H3 receptor [4]
  inhibition: 128%
Histamine receptor H3
  Ki: 3.4 nM

## Cc1cc(NC(=O)Nc2cc(Cl)cc(Cl)c2)ccc1N1CCC(N2CCCC2C)C1 (configuration not stated)
Histamine H3 receptor [1]
  IC50: 3.1 nM
[2]
  inhibition: < 40%
[3]
  inhibition: < 40%
Histamine H3 receptor [4]
  inhibition: 103%
[5]
  inhibition: < 40%

## CC(=O)N(C)C1CCN(C(=O)Nc2ccc(N3CCC(N4CCCC4C)C3)cc2)C1 (configuration not stated)
Histamine H3 receptor [1]
  IC50: 1.1 nM
[2]
  inhibition: < 40%
[3]
  inhibition: < 40%
Histamine H3 receptor [4]
  inhibition: 109%
[5]
  inhibition: < 40%

## Cc1cc(NC(=O)Nc2ccc(Oc3ccccc3)cc2)ccc1N1CCC(N2CCCC2C)C1 (configuration not stated)
Histamine H3 receptor [1]
  IC50: 0.6 nM
[2]
  inhibition: < 40%
[3]
  inhibition: < 40%
Histamine H3 receptor [4]
  inhibition: 126%
Histamine receptor H3
  Ki: 115 nM
[5]
  inhibition: < 40%

## CC1CCCN1C1CCN(c2ccc(NC(=O)NCc3cc(Cl)cc(Cl)c3)cc2)C1 (configuration not stated)
Histamine H3 receptor [1]
  IC50: 0.2 nM
[2]
  inhibition: < 40%
[3]
  inhibition: < 40%
Histamine H3 receptor [4]
  inhibition: 144%
Histamine receptor H3
  Ki: 7.1 nM
[5]
  inhibition: < 40%

## CC1CCCN1C1CCN(c2ccc(NC(=O)Nc3cc(Cl)cc(Cl)c3)cc2)C1 (configuration not stated)
Histamine H3 receptor [1]
  IC50: 1.2 nM
[2]
  inhibition: < 40%
[3]
  inhibition: < 40%
Histamine H3 receptor [4]
  inhibition: 103%
[5]
  inhibition: < 40%

## CC1CCCN1C1CCN(c2ccc(NC(=O)N3CCN(C)CC3)cc2)C1 (configuration not stated)
Histamine H3 receptor [1]
  IC50: 0.2 nM
[2]
  inhibition: < 40%
[3]
  inhibition: < 40%
Histamine H3 receptor [4]
  inhibition: 132%
[5]
  inhibition: < 40%

## CC1CCCN1C1CCN(c2ccc(NC(=O)N3CCCCC3)cc2)C1 (configuration not stated)
Histamine H3 receptor [1]
  IC50: 0.3 nM
[2]
  inhibition: < 40%
[3]
  inhibition: < 40%
Histamine H3 receptor [4]
  inhibition: 108%
[5]
  inhibition: < 40%

## CCN(CC)CCOc1ccc(NC(=O)Nc2ccc(F)cc2F)cc1
Histamine H3 receptor [1]
  IC50: 111 nM
Histamine H3 receptor [4]
  inhibition: 117%

## CC(=O)N1CCN(C(=O)Nc2ccc(N3CCC(N4CCCC4C)C3)cc2)CC1 (configuration not stated)
Histamine H3 receptor [1]
  IC50: 0.5 nM
[2]
  inhibition: < 40%
[3]
  inhibition: < 40%
Histamine H3 receptor [4]
  inhibition: 127%
[5]
  inhibition: < 40%

## CN(C)CCOc1ccc(NC(=O)Nc2ccc(Cl)cc2)cc1
Histamine H3 receptor [1]
  IC50: 16.4 nM
Histamine H3 receptor [4]
  inhibition: 99%

## Cc1cc(NC(=O)NCc2cc(Cl)cc(Cl)c2)ccc1N1CCC(N2CCCC2C)C1 (configuration not stated)
Histamine H3 receptor [1]
  IC50: 1.1 nM
[2]
  inhibition: < 40%
[3]
  inhibition: < 40%
Histamine H3 receptor [4]
  inhibition: 130%
[5]
  inhibition: < 40%

## Cc1cc(N2CCC(N3CCCC3C)C2)ccc1NC(=O)N1CCN(C)CC1 (configuration not stated)
Histamine H3 receptor [1]
  IC50: 0.8 nM
[2]
  inhibition: < 40%
[3]
  inhibition: < 40%
Histamine H3 receptor [4]
  inhibition: 120%
[5]
  inhibition: < 40%

## CC1CCCN1C1CCN(c2ccc(NC(=O)Nc3ccc(Oc4ccccc4)cc3)cc2)C1 (configuration not stated)
Histamine H3 receptor [1]
  IC50: 1.4 nM
[2]
  inhibition: < 40%
[3]
  inhibition: < 40%
Histamine H3 receptor [4]
  inhibition: 113%
Histamine receptor H3
  Ki: 46.8 nM
[5]
  inhibition: < 40%

## CCN(CC)CCOc1ccc(NC(=S)Nc2ccc(OCC(C)C)cc2)cc1
Histamine H3 receptor [1]
  IC50: 0.6 nM
Histamine H3 receptor [8]
  Ki: 16.8 nM
Histamine H3 receptor [9]
  Ki: 39.9 nM
Histamine H3 receptor [4]
  inhibition: 129%
Histamine receptor H3
  Ki: 15.7 nM

## CC1CCCN1C1CCN(c2ccc(NC(=O)NCc3cccs3)cc2)C1 (configuration not stated)
Histamine H3 receptor [1]
  IC50: 0.1 nM
[2]
  inhibition: < 40%
[3]
  inhibition: < 40%
Histamine H3 receptor [4]
  inhibition: 129%
Histamine receptor H3
  Ki: 1.9 nM
[5]
  inhibition: < 40%

## CN(C)CCOc1ccc(NC(=O)Nc2ccc(F)cc2F)cc1
Histamine H3 receptor [1]
  IC50: 149 nM
Histamine H3 receptor [4]
  inhibition: 102%
